Results as given in patent US6423702B1, “PROCESS FOR THE HYDROXYLATION OF AN ACYCLIC OR CYCLIC METHYLENE RADICAL IN THE ALLYLIC POSITION, PHARMACEUTICAL COMPOSITION CONTAINING HYDROXYCHOLESTEROL DERIVATIVES AND UTILIZATION OF SUCH COMPOSITIONS FOR THE PREPARATION OF DRUGS” (priority 1991, dated 2002).

Columns and labels:
[1] = system: glioblastomas in the rat cortex (C6 cells); test: Glioblastomas induced in the brain with C6 cells, liposome treatment at the tumor site; assay type: in vivo
Description: The “in vivo” model proposed by Galli et al., (J. Neurooncology, 7, 299-304, 1989) has been adopted with a few modifications in the number of C6-type cells injected and in the age of the rats. Rats (Wistar male) aged 6 days are anesthetized and placed in a stereotaxic apparatus, the skin of the cranium is opened and the skull pierced at appropriate coordinates (4.5 AP, 3.0 ML, 2.0 mm DV with respect to the lambda, set 0) using a dental drill; 200×10^3 C6 in […] of PBS are then injected over 4 minutes and then the skin sutured. 72 hours later, the rats are operated on again and treated with liposomes containing the 7β-hydroxycholesteryl 3-esters. […]
The rats are sacrificed 8 days after the treatment by […] injection of pentobarbital, perfused with formalin (4%) and the withdrawn brain is post-fixed in formalin (4%) and then in isobutanol and included in paraffin. Sections with a thickness of 10 μm are prepared using a section cutter and, after removing paraffin in toluene, the glioblastomas are detected by staining with Cresyl Violet (0.1% in 0.1 M […] and 0.1 M sodium acetate) and subjected to an image analyzer (IBAS, KONTRON, SAMBA ALCATEL). […]
Quantitative analysis of the lesions thus observed requires the acquisition of images with sequences of echoes of spin having several echoes and recovery times. […]

[2] = system: reactional gliosis (reactive astrocytes); test: Reactional gliosis after electrolytic lesion of the striatum (brain), GFAP detection; assay type: in vivo, rat; details: rats aged 6 days; 2 μl liposomes with 20 μg PC and 2 μg sterol or oxysterol injected into the site of lesion
Description: (§1) PC and steroidal derivatives are dissolved in CHCL3/methanol [sic] (2/1 v/v), the solvent evaporated and 1 ml of KCL [sic] (0.15 M) added. The suspension is subjected to ultrasound in an ice bath (5×1 min with an interval of 30 sec, amplitude 18 μm), centrifuged 13,000 g for 20 min, the supernatant withdrawn and concentrated 5 times under nitrogen. BRAIN
Rats aged 6 days are anesthetized with an intraperitoneal injection of imalgene 500 (2 mg/10 g) and valium (0.05 ml/10 g) and then placed in a stereotaxic apparatus in order to be subjected to an electrolytic lesion at the level of the striatum. For this, a dental probe, insulated except at the point, is moved down to the level of the striatum according to the stereotaxic coordinates with respect to the lambda. At this level, a current of 2 mA is applied for 10 secs;
2 μl of a suspension of liposomes containing 20 μg of PC and 2 μg of various sterols or oxysterols are injected into the site of lesion.
(§2) GFAP, specific structural labeler of astrocytes, is detected on paraffin sections by the antibody/antiantibody system to GFAP coupled to the peroxidase.

[3] = system: subcutaneous glioblastomas (C6 cells); test: Subcutaneous tumors induced by inoculating with C6 cells, intratumoral liposome treatment; assay type: in vivo, rat; details: 50 μl liposomes with 1 mg PC and 100 μg steroid injected into the tumors; photographed 48 hours afterwards
Description: The C6 cells (passage 55-57) are injected subcutaneously at the shoulders at a charge of 10^6 cells/200 μl of […] in rats (26 g) aged 3 weeks according to Ledig et al., (Revue de l'Alcoolisme, 1986, 31, 1-11); when the tumors develop (2 weeks after inoculating with the C6 cells), 50 μl of a suspension of liposomes containing 1 mg of PC and 100 μg of cholesteryl oleate or 7β-OH-cholesteryl oleate are injected into the tumors. The animals are photographed 48 hours afterwards.

[4] = system: secondary reactional gliosis (reactive astrocytes); test: Reactional gliosis after complete section of the spinal cord at T8, GFAP detection; assay type: in vivo, rat; details: rats 250 g; 5 μl liposomes with 500 μg PC and 50 μg ester injected 0.5 mm downstream of the section
Description: as §1
After complete section of the spinal cord at the T8 level in rats weighing 250 g (Sprague, Dawley, EFFA, Credo), 5 μl of a suspension of liposomes containing 500 μg of PC and 50 μg of esters of 7β-OH-CH (C18:0 or C18:1) are injected at 0.5 mm downstream of the section.
as §2

[5] = system: ascitic tumors, Krebs-II transplantable carcinoma; details: injected intraperitoneally into mice carrying ascitic tumors; cited from earlier work
[6] = system: rat liver epithelial cells; details: cited from earlier work
[7] = system: cultured heart cells from newborn rats; details: cited from earlier work
transformed astrocytes = details: cited from earlier work
[8] = system: lymphoma (mouse RDM4 and YAC-1); details: mouse RDM4 and YAC-1 lymphoma; cited from earlier work
[9] = system: rat fibroblasts originating from the heart; details: cited from earlier work
[10] = system: hepatocytes from newborn rats; details: cited from earlier work
[11] = system: HTC cells (rat liver tumoral cells); details: cited from earlier work
[12] = system: tumors induced by 7,12-di-methylbenz(α)anthracene; details: female Sprague-Dawley rats; cited from earlier work

CCCCCCCC/C=C\CCCCCCCC(=O)O[C@H]1CC[C@@]2(C)C(=C[C@H](O)[C@H]3[C@@H]4CC[C@H]([C@H](C)CCCC(C)C)[C@@]4(C)CC[C@@H]32)C1 [7β-OH-CH (C18:1), 7β-hydroxycholesteryl 3-oleate]
size of the tumors (Cresyl Violet staining) ([1]; 40 μg in PC/GM1 liposomes injected 72 hours after C6 inoculation, sacrifice 8 days after treatment): significant reduction
monitoring of the tumor over time by NMR imagery ([1]; same glioblastoma induced in the cortex of a rat, during treatment): regression
reactional gliosis in the CNS [2]: high attenuation
effect on the subcutaneous tumor [3]: significant regression
secondary reactional gliosis at the spinal cord lesion site [4]: reduces

CC(C)CCC[C@@H](C)[C@H]1CC[C@H]2[C@@H]3[C@@H](OC(=O)CCC(=O)O)C=C4C[C@@H](OC(=O)CCC(=O)O)CC[C@]4(C)[C@H]3CC[C@]12C [7β-hydroxycholesterol 3,7-bis(hemisuccinate)]
antitumoral activity [5]: antitumoral activity

CC(C)CCC[C@@H](C)[C@H]1CC[C@H]2[C@@H]3[C@@H](O)C=C4C[C@@H](O)CC[C@]4(C)[C@H]3CC[C@]12C [7β-hydroxycholesterol]
cytotoxic activity against cultured cells [6]: cytotoxic activity
effect on cells with weaker potential for division [7]: not detrimentally affected
metabolism to esters of fatty acids (transformed astrocytes): metabolized
cytotoxic activity against cultured cells [8]: cytotoxic activity
cytotoxic activity against cultured cells [9]: cytotoxic activity
effect on cells with weaker potential for division [10]: not detrimentally affected
cytotoxic activity against cultured cells [11]: cytotoxic activity

CC(C)CC[C@@H](O)[C@@H](C)[C@H]1CC[C@H]2[C@@H]3[C@@H](O)C=C4C[C@@H](O)CC[C@]4(C)[C@H]3CC[C@]12C [(22 R)-cholest-5-ene-3β,7β22-triol]
development of tumors [12]: effectively reduced

CCCCCCCCCCCCCCCC(=O)O[C@H]1CC[C@@]2(C)C(=CC[C@H]3[C@@H]4CC[C@H]([C@H](C)CCCC(C)C)[C@@]4(C)CC[C@@H]32)C1 [CH (C16:0), cholesteryl palmitate]
reactional gliosis in the CNS [2]: ineffective

CCCCCCCC/C=C\CCCCCCCC(=O)O[C@H]1CC[C@@]2(C)C(=CC[C@H]3[C@@H]4CC[C@H]([C@H](C)CCCC(C)C)[C@@]4(C)CC[C@@H]32)C1 [CH (C18:1), cholesteryl oleate]
effect on the subcutaneous tumor [3]: practically no effect

CC(C)CCC[C@@H](C)[C@H]1CC[C@H]2[C@@H]3CC=C4C[C@@H](O)CC[C@]4(C)[C@H]3CC[C@]12C [CH, cholesterol]
reactional gliosis in the CNS [2]: ineffective
